What was measured:
[1] = Stability of cannabinoid entourage and Vitamin E components of the powder concentrate by LCMSMS; type: physicochemical; conditions: for Stability of Plant-Derived Cannabinoid Compounds in Powder Concentrate: powder stored at 21-25° C.
Procedure: At each time period, 0.05 g of powder was dissolved in 10 ml-15 of ethanol, diluted to fall within the analytical range, and injected into the LCMSMS for analysis.

[2] = Stability of cannabinoid compounds and Vitamin E components in Beverage 1 (AB White) by LCMSMS; type: physicochemical; conditions: AB White stored at 8° C.
Procedure: The stability of the plant-derived cannabinoid compounds and Vitamin E components of the beverage stored 8° C. and at room temperature (21-25° C.) were monitored, over a period of 570 days via Liquid Chromatography-tandem Mass Spectrometry [LCMSMS, Agilent 6590, C18, 3×50 mm, 2.7 m (Agilent InfinityLab Poroshell 120 EC-C18), Electrospray Ionization detector]. The LCMSMS was calibrated for 0-1000 ng/ml cannabinoids with the same resin material used in the preparation of the concentrates. At each time period, 100 ml of beverage was diluted with 10 ml of methanol and injected into the LCMSMS for analysis.

CCCCCc1cc(O)c2c(c1)OC(C)(C)[C@@H]1CCC(C)=C[C@@H]21 [D9 THC, delta-9-tetrahydrocannabinol, reference compound]
degradation over the entire period (in words) ([1]; powder concentrate stored at 21-25° C., 570 days): no significant degradation | Stability of Plant-Derived Cannabinoid Compounds in Powder Concentrate ([1]; 0 days): 2.55 mg/g powder | Stability of Plant-Derived Cannabinoid Compounds in Powder Concentrate ([1]; 1 days): 2.55 mg/g powder | Stability of Plant-Derived Cannabinoid Compounds in Powder Concentrate ([1]; 2 days): 2.46 mg/g powder | Stability of Plant-Derived Cannabinoid Compounds in Powder Concentrate ([1]; 3 days): 2.63 mg/g powder | Stability of Plant-Derived Cannabinoid Compounds in Powder Concentrate ([1]; 5 days): 2.66 mg/g powder | Stability of Plant-Derived Cannabinoid Compounds in Powder Concentrate ([1]; 8 days): 2.49 mg/g powder | Stability of Plant-Derived Cannabinoid Compounds in Powder Concentrate ([1]; 9 days): 2.49 mg/g powder | Stability of Plant-Derived Cannabinoid Compounds in Powder Concentrate ([1]; 10 days): 2.60 mg/g powder | Stability of Plant-Derived Cannabinoid Compounds in Powder Concentrate ([1]; 11 days): 2.58 mg/g powder | Stability of Plant-Derived Cannabinoid Compounds in Powder Concentrate ([1]; 12 days): 2.65 mg/g powder | Stability of Plant-Derived Cannabinoid Compounds in Powder Concentrate ([1]; 15 days): 2.49 mg/g powder | Stability of Plant-Derived Cannabinoid Compounds in Powder Concentrate ([1]; 16 days): 2.54 mg/g powder | Stability of Plant-Derived Cannabinoid Compounds in Powder Concentrate ([1]; 17 days): 2.54 mg/g powder | Stability of Plant-Derived Cannabinoid Compounds in Powder Concentrate ([1]; 18 days): 2.55 mg/g powder | Stability of Plant-Derived Cannabinoid Compounds in Powder Concentrate ([1]; 19 days): 2.51 mg/g powder | Stability of Plant-Derived Cannabinoid Compounds in Powder Concentrate ([1]; 22 days): 2.46 mg/g powder | Stability of Plant-Derived Cannabinoid Compounds in Powder Concentrate ([1]; 23 days): 2.65 mg/g powder | Stability of Plant-Derived Cannabinoid Compounds in Powder Concentrate ([1]; 24 days): 2.60 mg/g powder | Stability of Plant-Derived Cannabinoid Compounds in Powder Concentrate ([1]; 25 days): 2.55 mg/g powder | Stability of Plant-Derived Cannabinoid Compounds in Powder Concentrate ([1]; 26 days): 2.52 mg/g powder | Stability of Plant-Derived Cannabinoid Compounds in Powder Concentrate ([1]; 29 days): 2.47 mg/g powder | Stability of Plant-Derived Cannabinoid Compounds in Powder Concentrate ([1]; 30 days): 2.66 mg/g powder | Stability of Plant-Derived Cannabinoid Compounds in Powder Concentrate ([1]; 60 days): 2.66 mg/g powder | Stability of Plant-Derived Cannabinoid Compounds in Powder Concentrate ([1]; 90 days): 2.49 mg/g powder | Stability of Plant-Derived Cannabinoid Compounds in Powder Concentrate ([1]; 120 days): 2.66 mg/g powder | Stability of Plant-Derived Cannabinoid Compounds in Powder Concentrate ([1]; 150 days): 2.61 mg/g powder | Stability of Plant-Derived Cannabinoid Compounds in Powder Concentrate ([1]; 180 days): 2.59 mg/g powder | Stability of Plant-Derived Cannabinoid Compounds in Powder Concentrate ([1]; 210 days): 2.54 mg/g powder | Stability of Plant-Derived Cannabinoid Compounds in Powder Concentrate ([1]; 240 days): 2.53 mg/g powder | Stability of Plant-Derived Cannabinoid Compounds in Powder Concentrate ([1]; 270 days): 2.47 mg/g powder | Stability of Plant-Derived Cannabinoid Compounds in Powder Concentrate ([1]; 300 days): 2.57 mg/g powder | Stability of Plant-Derived Cannabinoid Compounds in Powder Concentrate ([1]; 330 days): 2.49 mg/g powder | Stability of Plant-Derived Cannabinoid Compounds in Powder Concentrate ([1]; 360 days): 2.58 mg/g powder | Stability of Plant-Derived Cannabinoid Compounds in Powder Concentrate ([1]; 390 days): 2.48 mg/g powder | Stability of Plant-Derived Cannabinoid Compounds in Powder Concentrate ([1]; 420 days): 2.53 mg/g powder | Stability of Plant-Derived Cannabinoid Compounds in Powder Concentrate ([1]; 450 days): 2.61 mg/g powder | Stability of Plant-Derived Cannabinoid Compounds in Powder Concentrate ([1]; 480 days): 2.65 mg/g powder | Stability of Plant-Derived Cannabinoid Compounds in Powder Concentrate ([1]; 510 days): 2.64 mg/g powder | Stability of Plant-Derived Cannabinoid Compounds in Powder Concentrate ([1]; 540 days): 2.47 mg/g powder | Stability of Plant-Derived Cannabinoid Compounds in Powder Concentrate ([1]; 570 days): 2.64 mg/g powder | Stability of Plant-Derived Cannabinoid Compounds in AB White, 8° C. ([2]; 0 days): 12.2 µg/mL | Stability of Plant-Derived Cannabinoid Compounds in AB White, 8° C. ([2]; 1 days): 12.20 µg/mL | Stability of Plant-Derived Cannabinoid Compounds in AB White, 8° C. ([2]; 2 days): 11.91 µg/mL | Stability of Plant-Derived Cannabinoid Compounds in AB White, 8° C. ([2]; 3 days): 12.25 µg/mL | Stability of Plant-Derived Cannabinoid Compounds in AB White, 8° C. ([2]; 5 days): 12.11 µg/mL | Stability of Plant-Derived Cannabinoid Compounds in AB White, 8° C. ([2]; 8 days): 11.83 µg/mL | Stability of Plant-Derived Cannabinoid Compounds in AB White, 8° C. ([2]; 9 days): 12.14 µg/mL | Stability of Plant-Derived Cannabinoid Compounds in AB White, 8° C. ([2]; 10 days): 12.07 µg/mL | Stability of Plant-Derived Cannabinoid Compounds in AB White, 8° C. ([2]; 11 days): 11.83 µg/mL | Stability of Plant-Derived Cannabinoid Compounds in AB White, 8° C. ([2]; 12 days): 11.88 µg/mL | Stability of Plant-Derived Cannabinoid Compounds in AB White, 8° C. ([2]; 15 days): 12.08 µg/mL | Stability of Plant-Derived Cannabinoid Compounds in AB White, 8° C. ([2]; 16 days): 12.18 µg/mL | Stability of Plant-Derived Cannabinoid Compounds in AB White, 8° C. ([2]; 17 days): 12.05 µg/mL | Stability of Plant-Derived Cannabinoid Compounds in AB White, 8° C. ([2]; 18 days): 12.00 µg/mL | Stability of Plant-Derived Cannabinoid Compounds in AB White, 8° C. ([2]; 19 days): 12.11 µg/mL | Stability of Plant-Derived Cannabinoid Compounds in AB White, 8° C. ([2]; 22 days): 11.97 µg/mL | Stability of Plant-Derived Cannabinoid Compounds in AB White, 8° C. ([2]; 23 days): 12.03 µg/mL | Stability of Plant-Derived Cannabinoid Compounds in AB White, 8° C. ([2]; 24 days): 11.87 µg/mL | Stability of Plant-Derived Cannabinoid Compounds in AB White, 8° C. ([2]; 25 days): 11.99 µg/mL | Stability of Plant-Derived Cannabinoid Compounds in AB White, 8° C. ([2]; 26 days): 11.97 µg/mL

— US20260130395A1, “Water Dispersible Botanical Compositions” (Aquila Black Limited, priority 2021, published 2026)
